Test results from ChEMBL document CHEMBL3046271, “Design and synthesis of 3-[3-(substituted phenyl)-4-piperidin-1-ylmethyl/-4-morpholin-4-ylmethyl-4,5-dihydro-isoxazol-5-yl]-1H-indoles as potent anti-inflammatory agents” (Med Chem Res, 2010).

Assays:
Rattus norvegicus [1] = assay: Antioxidant activity in Rattus norvegicus Wistar (rat) assessed as malondialdehyde content in gastric mucosa at 210 mg/kg, po after 17 hr by UV spectrophotometric analysis (reference value: 3.23 +/- 0.05 nmol); assay type: functional
Rattus norvegicus [2] = assay: Anti-inflammatory activity in Rattus norvegicus Wistar (rat) assessed as inhibition of carrageenan-induced paw edema at 70 mg/kg, po administered 1 hr prior to carrageenan challenge measured after 4 hr by plethysmometric analysis relative to control; assay type: functional
Rattus norvegicus [3] = assay: Anti-inflammatory activity in Rattus norvegicus Wistar (rat) assessed as inhibition of carrageenan-induced paw edema at 70 mg/kg, po administered 1 hr prior to carrageenan challenge measured after 3 hr by plethysmometric analysis relative to control; assay type: functional
Rattus norvegicus [4] = assay: Ulcerogenic activity in Rattus norvegicus Wistar (rat) stomach assessed as severity index at 210 mg/kg, po after 17 hr relative to control; assay type: toxicity, organism-based; set-up: dose 210 mg/kg, route oral; conditions: in vivo
Rattus norvegicus [5] = assay: Antioxidant activity in Rattus norvegicus Wistar (rat) assessed as malondialdehyde content in gastric mucosa at 105 mg/kg, po after 17 hr by UV spectrophotometric analysis (reference value: 3.23 +/- 0.05 nmol); assay type: functional
Rattus norvegicus [6] = assay: Anti-inflammatory activity in Rattus norvegicus Wistar (rat) assessed as inhibition of carrageenan-induced paw edema at 35 mg/kg, po administered 1 hr prior to carrageenan challenge measured after 4 hr by plethysmometric analysis relative to control; assay type: functional
Rattus norvegicus [7] = assay: Anti-inflammatory activity in Rattus norvegicus Wistar (rat) assessed as inhibition of carrageenan-induced paw edema at 35 mg/kg, po administered 1 hr prior to carrageenan challenge measured after 3 hr by plethysmometric analysis relative to control; assay type: functional
Rattus norvegicus [8] = assay: Ulcerogenic activity in Rattus norvegicus Wistar (rat) stomach assessed as severity index at 105 mg/kg, po after 17 hr relative to control; assay type: toxicity, organism-based; set-up: dose 105 mg/kg, route oral; conditions: in vivo

Question: Which results are given for `Cc1ccc(C2=NOC(c3c[nH]c4ccccc34)C2CN2CCCCC2)cc1` (stereo not given)?
Answer: Activity (Rattus norvegicus [1]): 4.28 nmol; inhibition in vivo at 70 mg/kg (Rattus norvegicus [2]): 51.5%; inhibition in vivo at 70 mg/kg (Rattus norvegicus [3]): 41.2%; UI (Rattus norvegicus [4]): 0.5

Question: Which results are given for `c1ccc(C2=NOC(c3c[nH]c4ccccc34)C2CN2CCCCC2)cc1` (stereo not given)?
Answer: inhibition in vivo at 70 mg/kg (Rattus norvegicus [2]): 48.5%; inhibition in vivo at 70 mg/kg (Rattus norvegicus [3]): 34.3%

Question: `Clc1ccc(C2=NOC(c3c[nH]c4ccccc34)C2CN2CCOCC2)cc1` (stereo not given) was tested. Which Activity (Rattus norvegicus [1]) did it give?
Answer: 4.39 nmol

Question: What about the inhibition in vivo at 70 mg/kg (Rattus norvegicus [2]) of the same molecule?
Answer: 50.5%

Question: And the inhibition in vivo at 70 mg/kg (Rattus norvegicus [3])?
Answer: 44.1%

Question: And the UI (Rattus norvegicus [4])?
Answer: 0.75

Question: With `Cc1ccc(C2=NOC(c3c[nH]c4ccccc34)C2CN2CCOCC2)cc1` (stereo not given) as the molecule, how does the inhibition in vivo at 70 mg/kg (Rattus norvegicus [2]) read?
Answer: 48.5%

Question: What about the inhibition in vivo at 70 mg/kg (Rattus norvegicus [3]) of the same molecule?
Answer: 38.2%

Question: What does the source list for `c1ccc(C2=NOC(c3c[nH]c4ccccc34)C2CN2CCOCC2)cc1` (stereo not given)?
Answer: inhibition in vivo at 70 mg/kg (Rattus norvegicus [2]): 45.5%; inhibition in vivo at 70 mg/kg (Rattus norvegicus [3]): 35.3%

Question: With `Clc1ccc(C2=NOC(c3c[nH]c4ccccc34)C2CN2CCCCC2)cc1` (stereo not given) as the molecule, how does the Activity (Rattus norvegicus [1]) read?
Answer: 4.38 nmol

Question: And the inhibition in vivo at 70 mg/kg (Rattus norvegicus [2])?
Answer: 53.5%

Question: And the inhibition in vivo at 70 mg/kg (Rattus norvegicus [3])?
Answer: 45.1%

Question: What about the UI (Rattus norvegicus [4]) of the same molecule?
Answer: 0.583

Question: What does the source list for `COc1ccc(C2=NOC(c3c[nH]c4ccccc34)C2CN2CCCCC2)cc1` (stereo not given)?
Answer: Activity (Rattus norvegicus [1]): 4.51 nmol; inhibition in vivo at 70 mg/kg (Rattus norvegicus [2]): 50.5%; inhibition in vivo at 70 mg/kg (Rattus norvegicus [3]): 45.1%; UI (Rattus norvegicus [4]): 0.75

Question: Which Activity (Rattus norvegicus [5]) does the source give for `COc1ccc2c(c1)c(CC(=O)O)c(C)n2C(=O)c1ccc(Cl)cc1` [INDOMETHACIN] here?
Answer: 9.29 nmol

Question: And the inhibition in vivo at 35 mg/kg (Rattus norvegicus [6])?
Answer: 76.5%

Question: And the inhibition in vivo at 35 mg/kg (Rattus norvegicus [7])?
Answer: 65.2%

Question: What about the UI (Rattus norvegicus [8]) of the same molecule?
Answer: 2.33

Question: Which results are given for `COc1ccc(C2=NOC(c3c[nH]c4ccccc34)C2CN2CCOCC2)cc1` (stereo not given)?
Answer: Activity (Rattus norvegicus [1]): 4.16 nmol; inhibition in vivo at 70 mg/kg (Rattus norvegicus [2]): 55.5%; inhibition in vivo at 70 mg/kg (Rattus norvegicus [3]): 44.1%; UI (Rattus norvegicus [4]): 0.25
